Experimental data taken from article PMC9822021, “Biological Activity of Amidino-Substituted Imidazo [4,5-b]pyridines” (Molecules, 2022).

Tests used:
S. Pneumoniae ATCC 49619 = assay: Antibacterial activity in vitro, broth microdilution; assay type: cell-based; details: Streptococcus pneumoniae, ATCC49619; broth microdilution (CLSI), 16–24 h at 37 °C
Experimental: (§1) Synthesized compounds were prepared as 10 mM DMSO solutions and tested in a final concentration range of 100–0.2 µM [34].
(§2) Broth microdilution testing was performed according to CLSI (Clinical Laboratory Standards Institute) guidelines. MIC (minimal inhibitory concentration) values were defined as the last tested concentration of the compound at which there was no visible growth of bacteria. Inoculums for each microorganism were prepared using the direct colony suspension method, where broth solutions that achieved turbidity equivalent to 0.5 McFarland standard were additionally diluted 100× with Ca-adjusted MH media (Becton Dickinson).

S. aureus ATCC 29213 = assay: as above; assay type: cell-based; details: Staphylococcus aureus, ATCC29213; broth microdilution (CLSI), 16–24 h at 37 °C
Experimental: as §1, §2

E. coli ATCC 25922 = assay: as above; assay type: cell-based; details: Escherichia coli, ATCC25922; broth microdilution (CLSI), 16–24 h at 37 °C
Experimental: as §1, §2

[1] = tested on: Capan-1 pancreatic adenocarcinoma cells; assay: In vitro antiproliferative activity, MTS proliferation assay; assay type: cell-based; details: Homo sapiens, 72 h
Experimental: (§3) Culture media were purchased from Gibco Life Technologies, USA, and supplemented with 10% fetal bovine serum (HyClone, GE Healthcare Life Sciences, Chicago, IL, USA), except for the media for SW620, PC3 and HeLa cells, which were purchased from Sigma.
(§4) Cells were incubated for 72 h with compounds and were then analyzed using the CellTiter 96® AQueous One Solution Cell Proliferation Assay (MTS) reagent (Promega) according to the manufacturer’s instructions. […] Compounds were tested in two independent experiments. SW620, PC3 and HeLa cells were seeded in 96-well microtiter plates at 1 × 10^4 to 3 × 10^4 cells/mL, depending on the doubling times of the specific cell line. Test agents were then added in five 10-fold dilutions (10^−8 to 10^−4 M). Working dilutions were freshly prepared on the day of testing. After 72 h of incubation, the cell growth rate was evaluated using the MTT assay as described previously. […] Each test was performed in quadruplicate in at least two individual experiments.

[2] = tested on: DND-41 acute lymphoblastic leukemia cells; assay: as above; assay type: cell-based; details: Homo sapiens, DND41, 72 h
Experimental: as §3, §4

[3] = tested on: HL-60 acute myeloid leukemia cells; assay: as above; assay type: cell-based; details: Homo sapiens, 72 h
Experimental: as §3, §4

in vitro [4] = details: human
in vitro [5] = details: human; remark: listed apart in the source
in vitro [6] = details: dog
[7] = tested on: Z-138 non-Hodgkin lymphoma cells; assay: In vitro antiproliferative activity, MTS proliferation assay; assay type: cell-based, human; details: Homo sapiens, Z-138, 72 h
Description: (§5) Human cancer cell lines used in this manuscript, namely Capan-1, HCT-116, NCI-H460, LN-229, HL-60, K-562, Z-138, SW620, PC3 and HeLa, were acquired from the American Type Culture Collection (ATCC, Manassas, VA, USA), while the DND-41 cell line was purchased from the Deutsche Sammlung von Mikroorganismen und Zellkulturen (DSMZ Leibniz-Institut, Germany). Culture media were purchased from Gibco Life Technologies, USA, and supplemented with 10% fetal bovine serum (HyClone, GE Healthcare Life Sciences, Chicago, IL, USA), except for the media for SW620, PC3 and HeLa cells, which were purchased from Sigma.
(§6) Adherent cell lines LN-229, HCT-116, NCI-H460 and Capan-1 cells were seeded at a density between 500 and 1500 cells per well in 384-well tissue culture plates (Greiner). […]. Cells were incubated for 72 h with compounds and were then analyzed using the CellTiter 96® AQueous One Solution Cell Proliferation Assay (MTS) reagent (Promega) according to the manufacturer’s instructions. Absorbance of the samples was measured at 490 nm using a SpectraMax Plus 384 (Molecular Devices), and OD values were used to calculate the 50% inhibitory concentration (IC50). Compounds were tested in two independent experiments. SW620, PC3 and HeLa cells were seeded in 96-well microtiter plates at 1 × 10^4 to 3 × 10^4 cells/mL, depending on the doubling times of the specific cell line. Test agents were then added in five 10-fold dilutions (10^−8 to 10^−4 M). Working dilutions were freshly prepared on the day of testing. After 72 h of incubation, the cell growth rate was evaluated using the MTT assay as described previously. Absorbance of the samples was measured at 570 nm, and OD values were used to calculate the 50% inhibitory concentration (IC50). Each test was performed in quadruplicate in at least two individual experiments.

E. coli Efflux Del = assay: microbe, parasite or virus in culture; assay type: cell-based; details: Escherichia coli, read-out: MIC E. coli Efflux Del
Experimental: as §1, §2

[8] = tested on: NCI-H460 lung carcinoma cells; assay: In vitro antiproliferative activity, MTS proliferation assay; assay type: cell-based; details: Homo sapiens, 72 h
Description: as §5, §6

[9] = tested on: LN-229 glioblastoma cells; assay: as above; assay type: cell-based; details: Homo sapiens, 72 h
Description: as §5, §6

[10] = tested on: HCT-116 colorectal carcinoma cells; assay: as above; assay type: cell-based; details: Homo sapiens, 72 h
Description: as §5, §6

[11] = tested on: K-562 chronic myeloid leukemia cells; assay: as above; assay type: cell-based; details: Homo sapiens, K562, 72 h
Description: as §5, §6

[12] = tested on: HeLa cervical carcinoma cells; assay: In vitro antiproliferative activity, MTT assay; assay type: cell-based; details: Homo sapiens, 72 h
Description: as §5, §6

[13] = tested on: SW620 colon carcinoma cells; assay: In vitro antiproliferative activity, MTT assay; assay type: cell-based; details: Homo sapiens, SW-620, 72 h
Description: as §5, §6

[14] = tested on: PC3 prostate carcinoma cells; assay: In vitro antiproliferative activity, MTT assay; assay type: cell-based; details: Homo sapiens, 72 h
Description: as §5, §6

[15] = tested on: Influenza H3N2 (A/HK/7/87); assay: Antiviral CPE reduction assay; assay type: cell-based; details: Influenza A virus, MDCK cells
[16] = tested on: Influenza H1N1 (A/Ned/378/05); assay: Antiviral CPE reduction assay; assay type: cell-based; details: Influenza A virus, MDCK cells
[17] = tested on: Influenza B (B/Ned/537/05); assay: Antiviral CPE reduction assay; assay type: cell-based; details: Influenza B virus, MDCK cells

| Structure (SMILES) | IC50 [7] [µM] | IC50 [8] [µM] | IC50 [9] [µM] | IC50 [10] [µM] | IC50 [11] [µM] | IC50 [12] [µM] | IC50 [13] [µM] | IC50 [14] [µM] | also measured |
| --- | --- | --- | --- | --- | --- | --- | --- | --- | --- |
| Cn1c(-c2ccc(C#N)cc2)nc2cc(Br)cnc21 [Compound 19, 4-(6-Bromo-3-methyl-3H-imidazo[4,5-b]pyridin-2-yl)benzonitrile] | > 100 | > 100 | > 100 | > 100 | > 100 | 26.1 ± 0.01 | 63.8 ± 7.4 | 28.8 ± 15 | MIC (S. Pneumoniae ATCC 49619): > 64 µM; MIC (S. aureus ATCC 29213): > 64 µM; MIC (E. coli ATCC 25922): > 64 µM; IC50 [1]: > 100 µM; IC50 [2]: > 100 µM; IC50 [3]: > 100 µM; CC50 (in vitro [4]): > 100 µM; CC50 (in vitro [5]): > 100 µM; CC50 (in vitro [6]): > 100 µM; melting point: 234 to 235 °C; MIC (E. coli Efflux Del): > 64 µM |
| CC(=O)O[C@@]12CO[C@@H]1C[C@H](O)[C@@]1(C)C(=O)[C@H](O)C3=C(C)[C@@H](OC(=O)[C@H](O)[C@@H](NC(=O)OC(C)(C)C)c4ccccc4)C[C@@](O)([C@@H](OC(=O)c4ccccc4)[C@H]21)C3(C)C [DTX, docetaxel, reference compound] | 0.0023 | 0.0034 | 0.0041 ± 0.003 | 0.0025 | 0.0085 ± 0.001 | – | – | – | IC50 [1]: 0.0038 ± 0.003 µM; IC50 [2]: 0.0025 µM; IC50 [3]: 0.0022 µM |
| C[C@@H](O)[C@H]1C(=O)N2C(C(=O)O)=C(S[C@@H]3CN[C@H](C(=O)N(C)C)C3)[C@H](C)[C@H]12 [Meropenem, meropenem, reference compound] | – | – | – | – | – | – | – | – | MIC (S. Pneumoniae ATCC 49619): < 0.125 µM; MIC (S. aureus ATCC 29213): < 0.125 µM; MIC (E. coli ATCC 25922): < 0.125 µM; MIC (E. coli Efflux Del): < 0.125 µM |
| CN[C@@H]1C[C@H]2O[C@@](C)([C@@H]1OC)n1c3ccccc3c3c4c(c5c6ccccc6n2c5c31)C(=O)NC4 [STS, staurosporine, reference compound] | 0.0484 ± 0.007 | 0.0448 ± 0.004 | 0.0668 ± 0.016 | 0.0701 ± 0.006 | 0.0374 ± 0.006 | – | – | – | – |
| CC(=O)N[C@H]1[C@H]([C@H](O)[C@H](O)CO)OC(C(=O)O)=C[C@@H]1N=C(N)N [Zanamivir, zanamivir, reference compound] | – | – | – | – | – | – | – | – | EC50 [15]: 16.8 ± 6.8 µM; EC50 [16]: 0.13 ± 0.04 µM; CC50 (in vitro [6]): > 100 µM; EC50 [17]: 0.05 ± 0.03 µM |
| COc1cccc2c1C(=O)c1c(O)c3c(c(O)c1C2=O)C[C@@](O)(C(=O)CO)C[C@@H]3O[C@H]1C[C@H](N)[C@H](O)[C@H](C)O1 [doxorubicine, reference compound] | – | – | – | – | – | 0.16 ± 0.05 | 0.02 | 0.13 ± 0.02 | – |
| COc1cc([C@@H]2c3cc4c(cc3[C@@H](O[C@@H]3O[C@@H]5CO[C@@H](C)O[C@H]5[C@H](O)[C@H]3O)[C@H]3COC(=O)[C@H]23)OCO4)cc(OC)c1O [etoposide, reference compound] | – | – | – | – | – | 0.004 ± 0.001 | 0.63 ± 0.1 | 11.6 ± 1.9 | – |
